Patent publication US7192714B2, “LDL receptor signaling assays” (Board of Regents, The University of Texas System, priority 2001, dated 2007)

Key:
[1] = test system: LRP-Gal4/VP16; assay: LRP-Gal4/VP16 luciferase reporter gene assay in transfected 293 cells; type: cell-based, human
Procedure: (§1) Cell Culture and transfection of 293 cells: The human embryonic kidney cell line HEK 293 (CRL-1573, ATCC) was maintained in monolayer culture at 37° C. under a 8% CO2 atmosphere. On day 0 cells were set up at a density of 5×105 per 60 mm dish in Dulbecco's Modified Eagle's Medium (low glucose) containing 100 U/ml penicillin, 100 ug/ml streptomycin sulfate and 10% (v/v) FCS. On day one cells were transfected by calcium phosphate precipitation (MBS Kit™, Stratagene, La Jolla, Calif., used according to manufacturers' instructions) with 9 ug of the pG5 E1B-Luc plasmid, 0.5 ug of pCMV-b-Gal for internal control of transfection efficiency, the respective receptor construct and expression vectors for different adapter proteins or other components as indicated in the text. On day two treatment with TPA or other reagents was started as described above and cells were harvested 24 h to 48 h later.
Reporter gene assays: 293 cells were harvested for reporter gene assays 48 h after transfection. Their culture medium was removed and the cells were washed once with PBS. After addition of 400 ul “Reporter Lysis Buffer” (Promega, Madison, Wis.) per 60mm dish cells were processed according to manufacturers' instructions. Luciferase gene expression was analyzed using the “Luciferase Assay System” (Promega, Madison, Wis.). A 10 s integral measurement of light emission from each reaction mixture was performed in a tube luminometer (Octopump II, MOM Instruments).
β-Gal assays for internal control of […] were carried out with an aliquot of the cell lysates prepared for the luciferase assay using the ‘Chemiluminescent b-Gal Detection Kit” (Clontech, Palo Alto, Calif.). Normalization of luciferase activity to b-Gal activity was done by dividing RLU values obtained with the first assay by those from the latter reaction. All transfections for reporter gene assays were repeated in at least two independent experiments.
Experimental Strategy. The Gal4/VP16 fusion protein, which consists of the DNA binding domain of the yeast Gal4 transcription factor and of the transactivating domain of the Herpes simplex virus protein VP16, is able to drive transcription from a luciferase reporter plasmid that contains five Gal4 binding elements in front of the adenoviral E1B minimal promoter and the firefly luciferase gene. […]
Treatment of 293 Cells with the Proteasome Inhibitor Lactacystin Stabilizes the Intracellular LRP-Cleavage Product. […] Subsequently cell lysates were prepared and examined for luciferase activity. β-Gal activity was measured to correct for transfection efficiency. […]

[2] = test system: LRP; assay: Endogenous LRP levels by Western blotting in MEF-1 cells; type: cell-based, mouse
Procedure: (§2) SDS-Page and immunoblot analysis: SDS-Page and immunoblotting were performed according to standard procedures. Briefly, equal amounts of protein as determined with the Coomassie Plus Protein Reagent (Pierce, Rockford, Ill.) were loaded on 4–12% SDS PA gels. After electrophoresis and protein transfer on a PVDF membrane immunoblot, analysis was carried out with rabbit polyclonal antibodies against a C-terminal fragment of LRP. Bound antibodies were visualized with peroxidase-conjugated anti-rabbit IgG by using the SuperSignal CL-HRP Substrate (Pierce, Rockford, Ill.) according to the manufacturer's instructions.
(§3) Then cell lysates were prepared and analyzed by Western Blotting. The antibody used for immunostaining is directed against LRP's C-terminus.
Decrease of LRP Levels after TPA Treatment is Time-Dependent. […] Then cell lysates were prepared and used for SDS-PAGE and Western Blotting. LRP was stained with an antibody directed against its cytoplasmic tail.

[3] = test system: pMstGV-LDL-R construct; assay: LDL-R-Gal4/VP16 (pMstGV-LDL-R) luciferase reporter gene assay in transfected 293 cells; type: cell-based, human; settings: 100 nM TPA for 24 h
Procedure: as §1
(§4) Reporter gene assays: 293 cells were harvested for reporter gene assays 48 h after transfection. Their culture medium was removed and the cells were washed once with PBS. After addition of 400 ul “Reporter Lysis Buffer” (Promega, Madison, Wis.) per 60mm dish cells were processed according to manufacturers' instructions. Luciferase gene expression was analyzed using the “Luciferase Assay System” (Promega, Madison, Wis.). […]

[4] = test system: LRP; assay: Endogenous LRP levels by Western blotting in untransfected 293 cells; type: cell-based, human
Procedure: as §2, §3
TPA Treatment Leads To Decreased LRP Levels in 293 Cells. […] Then cell lysates were prepared and analyzed by Western Blotting. The antibody used for immunostaining is directed against LRP's C-terminus.

[5] = test system: pMstGV-APP construct; assay: APP-Gal4/VP16 (pMstGV-APP) luciferase reporter gene assay in transfected 293 cells; type: cell-based, human; settings: 100 nM TPA for 24 h
Procedure: as §1, §4

Compound: CC(=O)N[C@@H](CSC(=O)[C@]1([C@@H](O)C(C)C)NC(=O)[C@H](C)[C@@H]1O)C(=O)O [lactacystin, Lactacystin]
- luciferase signal enhancement (stabilization of intracellular LRP-cleavage product) ([1]; 10 uM lactacystin for 24 h): about 25 fold
- luciferase signal enhancement (stabilization of intracellular LRP-cleavage product) ([1]; 50 uM lactacystin for 24 h): about 25 fold

Compound: CCCCCCCCCCCCCC(=O)O[C@@H]1[C@@H](C)[C@@]2(O)[C@@H](C=C(CO)C[C@]3(O)C(=O)C(C)=C[C@@H]23)[C@@H]2C(C)(C)[C@]12OC(C)=O [TPA, Phorbol 12-myristate 13-acetate]
- effect on endogenous LRP levels ([2]; 100 nM TPA for 24 h or time indicated): Lowers Endogenous LRP Levels
- decrease of LRP levels, time course ([2]; TPA for 0.5, 1.5, 5, 5, 6 and 24 h): Time-Dependent
- luciferase activity, stimulated versus unstimulated [3]: negligible activity under stimulated and unstimulated conditions
- effect on endogenous LRP levels ([4]; 100 nM TPA for 24 h or time indicated, untransfected 293 cells): Lowers Endogenous LRP Levels
- decrease of cellular LRP levels ([4]; 100 nM TPA, various time periods up to 48 h, Western blot, antibody against LRP C-terminus, text names 293 and MEF-1 cells, heading 293): ≤ 90%
- luciferase activity, stimulated versus unstimulated [5]: equivalent elevated activity under both stimulated and unstimulated conditions
- luciferase activity, elevation under stimulated versus unstimulated conditions ([1]; 100 nM TPA for 24 h, pcDNA3.1-LRP-Gal4/VP16): up to 10 fold
- corrected luciferase activity (intracellular/intramembraneous LRP cleavage) versus unstimulated cells ([1]; 100 nM TPA, time periods of 12, 16, 20 and 24, pcDNA3.1-LRP-Gal4/VP16): linear increase
